Results taken from US12312378B2, “Glucosamine derivatives for the prevention or treatment of joint disorders” (RISEN (SUZHOU) PHARMA TECH CO., LTD., priority 2017, dated 2025).
“Also recorded” adds a separate entry of the source. Marks after values point to notes of the source that are not given here.

Legend:
[1] = test system: MIA-induced OA rat model; assay: Monosodium iodoacetate-induced osteoarthritis (MIA) model in rat knee; format: in vivo
Description: Osteoarthritis was induced by intra-articular (i.a.) injection of MIA solution in the rat knee joint as follows: Briefly, rats were anesthetized with isoflurane and given a single i.a. administration of 2 mg of MIA dissolved in saline through the intrapatellar ligament of the right knee. MIA was administered in a volume of 50 μL. Basal readings were established using a group of control rats injected with 10% ethanol in water. Rats were randomized by initial body weight to groups of 6 or 7. After MIA injection, the MIA groups began treatment with either vehicle, or a test compound at a preset dose regime for a period of 28 days. Clinical observations were recorded, including body weight, joint swelling, and weight bearing, on pre-induction day (day 0), day 3, 5, 7, 14, 21 and/or 28. At the end of the study, the animals were euthanized by CO2 and sacrificed. Joint samples including the tibia and femur were sectioned in the coronal plane and stained using both H&E and Safranin-O. Knee joints were examined and scored for cartilage degeneration, the presence of osteophytes, the amount and extent of calcified cartilage and subchondral bone damage, and the amount of synovial membrane inflammation using the Osteoarthritis Research Society International (OARSI) scoring system put forth in 2010 (Kraus, V. B. et al., Osteoarthritis Cartilage, 2010, Suppl 3:S35-52).
Studies of compound 16 in the MIA model were conducted as described above.

[2] = test system: MMT-induced model of osteoarthritis; assay: Medial meniscus transection (MMT) model in rats; format: in vivo, rat; settings: for Weight bearing (right paw, %), mean: G2, gavage 4 times every day
Source text: In the rat MMT model, the unilateral knee (right knee) was cleaned and prepped for surgery. An incision was made over the medial aspect of the femoro-tibial joint. The medial collateral ligament was exposed via blunt dissection and transected to reflect the meniscus toward the femur. A full thickness cut was made through the meniscus at its narrowest point. The joint space was returned to normal, and the skin was closed and the animal allowed to recover. For the present study, at second day post MMT induction animals, G1 and G2 animals were treatment with vehicle and test compound 16 respectively. Animals were dosed 4 times every day, and were dosed by gavage for 4 weeks.

[3] = Pharmacokinetic study in SD rats: plasma GlcNBu after oral gavage of test compound; format: in vivo, Sprague-Dawley (SD) rats; set-up: key: (—): not detected; settings: Table 5: plasma GlcNBu after oral administration of the indicated compound, 0.93 mmol/kg
Description: A test compound is dissolved in water at a concentration determined by the desired dose and dosing volume for the specific animal to which the compound is to be administered. A calculated volume of dosing solution is administered to the animal (PO, SQ, IP, or IV). A blood sample is collected following administration of the test compound at specific time points (such as 0 minutes (min), 5 min, 10 min, 15 min, 30 min, 1 hour (h), 1.5 h, 2 h, 3 h, 4, 6 h, etc.). The blood sample is converted to a plasma sample using standard techniques. The plasma samples are analyzed to determine the concentration of the test compound and, in some cases, GlcNBu.
According to the above general procedure, SD rats were grouped randomly into groups of six (n=6). The test compound, GlcNBu or a compound provided herein, was administered to the animals by oral gavage at a dose of 0.93 mmol/kg. For illustration purposes, GlcNBu was given at an oral dose of 232 mg/kg (0.93 mmol/kg), and compound 16 was administered at an equal molar dose (0.93 mmol/kg, i.e., 362 mg/kg). At pre-set time points, blood was taken through orbital venous plexus extraction, and the samples were analyzed using LC/MS-MS to determine the GlcNBu concentration in the plasma.
In the figure, Curves labeled with -●- and -▴- represent plasma GlcNBu concentration following oral administration of GlcNBu (232 mg/kg, or 0.93 mmol/kg) and compound 16 ([…], or 0.93 mmol/kg), respectively. […] FIG. 2A and FIG. 2B show examples of other compounds of the invention, presented in plasma GlcNBu concentration versus time curves; a summary of pharmacokinetic parameters for these compounds is given in Table 4 and Table 5.

[4] = rats; data from i.v., i.p., and p.o. studies; cited from earlier work
[5] = test system: destructive arthritis rat model; settings: cited from earlier work
[6] = test system: OVX rat; settings: GlcNBu feeding in the OVX rat; cited from earlier work
[7] = rats; cited from earlier work
[8] = humans, cited from earlier work
[9] = G2, histopathology after 4 weeks of dosing

CCCC(=O)N[C@H]1C(O)O[C@H](COC(=O)CCC)[C@@H](OC(=O)CCC)[C@@H]1O (stereo partly drawn) [Compound 16, 2-N-4,6-O-tributyryl-D-glucosamine]
Weight bearing, mean ([1]; MIA rats, Group 2, 234 mg/kg, Day 3): 32.07% | Weight bearing, mean ([1]; MIA rats, Group 2, 234 mg/kg, Day 5): 35.76** % | Weight bearing, mean ([1]; MIA rats, Group 2, 234 mg/kg, Day 7): 37.72% | Weight bearing, mean ([1]; MIA rats, Group 2, 234 mg/kg, Day 14): 40.86% | Weight bearing, mean ([1]; MIA rats, Group 2, 234 mg/kg, Day 21): 44.12% | Weight bearing, mean ([1]; MIA rats, Group 2, 234 mg/kg, Day 28): 45.90% | Weight bearing, mean ([1]; MIA rats, Group 2, 234 mg/kg, Pre-Injection (Day 0) baseline): 50.49% | Weight bearing, mean ([1]; MIA rats, Group 3, 468 mg/kg, Day 3): 34.56% | Weight bearing, mean ([1]; MIA rats, Group 3, 468 mg/kg, Day 5): 37.40** % | Weight bearing, mean ([1]; MIA rats, Group 3, 468 mg/kg, Day 7): 39.23% | Weight bearing, mean ([1]; MIA rats, Group 3, 468 mg/kg, Day 14): 41.68* % | Weight bearing, mean ([1]; MIA rats, Group 3, 468 mg/kg, Day 21): 44.25% | Weight bearing, mean ([1]; MIA rats, Group 3, 468 mg/kg, Day 28): 44.98% | Weight bearing, mean ([1]; MIA rats, Group 3, 468 mg/kg, Pre-Injection (Day 0) baseline): 50.25% | weight bearing on the back-right leg versus vehicle ([1]; MIA rats, day 5, all compound-treated groups (234 and 468 mg/kg)): significant increases | weight bearing versus vehicle ([1]; MIA rats, high dose (G3, 468 mg/kg), day 14): significant increases | osteophytes versus vehicle group ([1]; MIA rats, high dose group (468 mg/kg), histology): significantly decreased | all other mean values for each histological parameter ([1]; MIA rats, high dose treated group (468 mg/kg)): clear trend of lowering | articular cartilage degeneration ([1]; MIA-induced OA rat model): slowed | degeneration changes of chondrocyte clustering, G2 compared with G1 [2]: significantly lower; also recorded: significantly less | values in all histology parameters, G2 versus G1 [2]: lower | weight bearing on the right paw, G2 compared with G1 ([2]; Day 3 and Days 14-28): significantly increased; also recorded: significantly more | Weight bearing (right paw, %), mean ([2]; Day 3): 36.68* % | Weight bearing (right paw, %), mean ([2]; Day 5): 39.76% | Weight bearing (right paw, %), mean ([2]; Day 7): 40.68% | Weight bearing (right paw, %), mean ([2]; Day 14): 42.71* % | Weight bearing (right paw, %), mean ([2]; Day 21): 43.73** % | Weight bearing (right paw, %), mean ([2]; Day 28): 44.06** % | Weight bearing (right paw, %), mean ([2]; Pre-injection baseline): 49.55% | Chondrocyte clustering (0-4), mean [2, 9]: 1.17* | Degenerative changes in cartilage (0-4), mean [2, 9]: 1.17 | Inflammatory response in subchondral bone region (0-4), mean [2, 9]: 0.00 | Nature of predominant tissue (0-4), mean [2, 9]: 1.00 | Neo-vascularization (0-4), mean [2, 9]: 0.00 | Osteophytes (0-4), mean [2, 9]: 1.17 | Structural integrity (0-4), mean [2, 9]: 1.17 | Surface regularity (0-4), mean [2, 9]: 1.67 | Total scoring, mean [2, 9]: 7.33

CCCC(=O)N[C@@H]1C(OC(=O)CCC)O[C@H](COC(=O)CCC)[C@@H](OC(=O)CCC)[C@@H]1O (stereo partly drawn) [Compound 74, 2-N-1,4,6-tri-O-tetrabutyryl-D-glucosamine]
AUC0-t [3]: 662 ng·h/mL | AUC0-∞ [3]: 889 ng·h/mL | CLz/F [3]: 367 mL/min/kg | Cmax [3]: 426 ng/mL | Tmax [3]: 0 h | t1/2z [3]: 1 h

CCCC(=O)N[C@H]1C(OCc2ccccc2)O[C@H](CO)[C@@H](O)[C@@H]1O (stereo partly drawn) [Compound 75, 1-O-benzyl-2-N-butyryl-D-glucosamine]
AUC0-t [3]: (—) | AUC0-∞ [3]: (—) | CLz/F [3]: (—) | Cmax [3]: (—) | Tmax [3]: (—) | Vz/F [3]: (—) | t1/2z [3]: (—)

CCCC(=O)N[C@H]1C(OCc2ccccc2)O[C@H](CO)[C@@H](O)[C@@H]1OCc1ccccc1 (stereo partly drawn) [Compound 76, 2-N-butyryl-1,3-di-O-benzyl-D-glucosamine]
AUC0-t [3]: (—) | AUC0-∞ [3]: (—) | CLz/F [3]: (—) | Cmax [3]: (—) | Tmax [3]: (—) | Vz/F [3]: (—) | t1/2z [3]: (—)

CCCC(=O)N[C@H]1C(O)O[C@H](COC(=O)CCC(=O)O)[C@@H](OC(=O)CCC(=O)O)[C@@H]1O (stereo partly drawn) [Compound 79, 2-N-butyryl-4,6-di-O-(4-hydroxy-4-oxo-butyryl)-D-glucosamine]
AUC0-t [3]: (—) | AUC0-∞ [3]: (—) | CLz/F [3]: (—) | Cmax [3]: (—) | Tmax [3]: (—) | Vz/F [3]: (—) | t1/2z [3]: (—)

CCCC(=O)N[C@H]1C(O)O[C@H](CO)[C@@H](O[C@@H]2O[C@H](CO)[C@@H](O)[C@H](O)[C@H]2O)[C@@H]1O (stereo partly drawn) [Compound 89, 2-N-butyryl-4-O-(D-glucopyranosyl)-D-glucosamine]
AUC0-t [3]: 1757 ng·h/mL | AUC0-∞ [3]: 1942 ng·h/mL | CLz/F [3]: 167 mL/min/kg | Cmax [3]: 1110 ng/mL | Tmax [3]: 2 h | t1/2z [3]: 1 h

CCCC(=O)N[C@H]1C(O)O[C@H](COC(=O)NCCCC(=O)O)[C@@H](O)[C@@H]1O (stereo partly drawn) [Compound 94, 2-N-butyryl-6-O-((3-carboxy-1-propyl)aminocarbonyl)-D-glucosamine]
AUC0-t [3]: (—) | AUC0-∞ [3]: (—) | CLz/F [3]: (—) | Cmax [3]: (—) | Tmax [3]: (—) | Vz/F [3]: (—) | t1/2z [3]: (—)

CCCC(=O)N[C@H]1C(O)O[C@H](CO)[C@@H](O)[C@@H]1O (stereo partly drawn) [GlcNBu, N-butyryl glucosamine]
half-life [4]: about 20 min | subchondral bone structure [5]: preserved strikingly | bone mineral and some biomechanical properties [6]: preserves

N[C@H]1C(O)O[C@H](CO)[C@@H](O)[C@@H]1O (stereo partly drawn) [Glucosamine, glucosamine]
oral bioavailability (F) [7]: 0.19-0.21 | serum levels ([8]; very large doses, after oral or IV administration): cannot be detected

CC(=O)N[C@H]1C(O)O[C@H](CO)[C@@H](O)[C@@H]1O (stereo partly drawn) [N-acetylglucosamine]
half-life compared with glucosamine ([8]; polyvalent or monovalent form): longer
